Our source for the EC50 values is ChEMBL document CHEMBL1130269, “A 3D QSAR study of a series of HEPT analogues: the influence of conformational mobility on HIV-1 reverse transcriptase inhibition” (J Med Chem, 1997).

In the assay the target is Human immunodeficiency virus type 1 reverse transcriptase (Human immunodeficiency virus 1, UniProt Q72547). The assay can be described thus: Inhibitory concentration against HIV-1 reverse transcriptase.

Values joined by “and” are separate entries in the source; they are usually repeats but may differ in a detail not shown here. Equal values may be shown once.

For the compound `CCOCn1c(Sc2cc(Cl)cc(Cl)c2)c(CC)c(=O)[nH]c1=S`, the EC50 came out at 13 nM. This counts as double-digit nanomolar.
`Cc1cc(C)cc(Cc2c(C(C)C)c(=O)[nH]c(=O)n2COCCO)c1` yielded an EC50 of 2.7 nM.
The figure for `Cc1cccc(Sc2c(C)c(=O)[nH]c(=O)n2COCCO)c1` is 2600 nM; for `CC(=O)c1cccc(Sc2c(C)c(=O)[nH]c(=O)n2COCCO)c1` it is 7300 nM; for `CCOCn1c(Sc2ccccc2)c(CC)c(=O)[nH]c1=S` it is 26 nM.
In turn, `CCc1c(Sc2ccccc2)n(COCc2ccccc2)c(=S)[nH]c1=O` displayed an EC50 of 7.8 nM. Against the preceding compound, the EC50 is about 3.3-fold lower.
Consider `CCc1c(Sc2cc(C)cc(C)c2)n(C/C=C/c2cccs2)c(=O)[nH]c1=O`, for which the concentration for a half-maximal effect (EC50) worked out at 40 nM.
Under `CCc1c(Sc2ccccc2)n(C/C=C/c2cccs2)c(=O)[nH]c1=O` stands 80 nM; under `CCOCn1c(Sc2cc(Cl)cc(Cl)c2)c(CC)c(=O)[nH]c1=O`, 7.4 nM; under `CCc1c(Cc2ccccc2)n(CCOC)c(=O)[nH]c1=O`, 250 nM.
Under `COCCOCn1c(Sc2ccccc2)c(C)c(=O)[nH]c1=O` stands 8700 nM.
`CCc1c(Sc2ccccc2)n(C/C=C/c2ccccc2)c(=O)[nH]c1=O` returned a concentration giving a half-maximal response (EC50) of 190 nM.
Under `Cc1c(Sc2cccc(Cl)c2)n(COCCO)c(=O)[nH]c1=O` stands 13000 nM; under `CC(C)c1c(Sc2ccccc2)n(COCCO)c(=O)[nH]c1=O`, 63 nM; under `CC(C)c1c(Sc2ccccc2)n(COCCO)c(=S)[nH]c1=O`, 59 nM.
Take `CCc1c(Sc2cc(C)cc(C)c2)n(COCc2ccccc2)c(=O)[nH]c1=O`: the concentration for a half-maximal effect (EC50) is 3.2 nM. Compared with the last compound, the EC50 is about 18-fold lower.
The figure for `CCOCn1c(Sc2ccccc2)c(C2CC2)c(=O)[nH]c1=O` is 100 nM; for `Cc1c(Sc2ccccc2)n(COCc2ccccc2)c(=O)[nH]c1=O` it is 88 nM; for `Cc1ccc(Sc2c(C)c(=O)[nH]c(=O)n2COCCO)cc1` it is 220000 nM.
Under `CCOCn1c(Sc2ccccc2)c(C(C)C)c(=O)[nH]c1=S` stands 14 nM.
Under `Cc1c(Sc2ccccc2)n(C/C=C/c2ccccc2)c(=O)[nH]c1=O` stands 2500 nM; under `CCc1c(Sc2ccccc2)n(COCC2CCCCC2)c(=S)[nH]c1=O`, 350 nM.
Compound `CCOCn1c(Cc2cc(C)cc(C)c2)c(CC)c(=O)[nH]c1=O` came in with an EC50 of 1.6 nM. Compared with the last compound, the EC50 is about 220-fold lower.
Compound `Cc1c(Sc2cccc(F)c2)n(COCCO)c(=O)[nH]c1=O` came in with an EC50 of 3300 nM.
Under `CCc1c(Sc2ccccc2)n(COCCO)c(=O)[nH]c1=O` stands 110 nM and 120 nM.
Compound `Cc1cc(C)cc(Sc2c(C)c(=O)[nH]c(=S)n2COCCO)c1` returned an EC50 of 220 nM.
As for `CCn1c(Sc2ccccc2)c(C)c(=O)[nH]c1=O`, a half-maximal effect (EC50) was put at 2200 nM. This EC50 lies about 10-fold higher than the previous one.
The compound `COCn1c(Sc2ccccc2)c(C)c(=O)[nH]c1=O` gave a 50% effective concentration (EC50) of 2100 nM.
In the case of `Cc1c(Sc2ccc(C3CCCCC3)cc2)n(COCCO)c(=O)[nH]c1=O`, it took 3500 nM to reach a half-maximal effect (EC50).
Under `CCOCn1c(Cc2ccccc2)c(C(C)C)c(=O)[nH]c1=O` [EMIVIRINE] stands 4.2 nM; under `CCOCn1c(Sc2ccccc2)c(C(C)C)c(=O)[nH]c1=O`, 12 nM; under `CCc1c(Sc2cc(C)cc(C)c2)n(COCc2ccccc2)c(=S)[nH]c1=O`, 6.9 nM.
The figure for `CCOCn1c(Sc2cc(C)cc(C)c2)c(CC)c(=O)[nH]c1=S` is 4.4 nM.
Under `CCOCn1c(Sc2ccccc2)c(C)c(=O)[nH]c1=O` stands 330 nM; under `Cc1c(Sc2cccc([N+](=O)[O-])c2)n(COCCO)c(=O)[nH]c1=O`, 34000 nM.
As for `CCOCn1c(Sc2cc(C)cc(C)c2)c(CC)c(=O)[nH]c1=O`, the EC50 was found to be 5.4 nM.
In turn, `CCCOCn1c(Sc2ccccc2)c(C)c(=O)[nH]c1=O` gave a concentration giving a half-maximal response (EC50) of 3600 nM.
Under `CCOCn1c(Cc2ccccc2)c(CC)c(=O)[nH]c1=O` stands 41 nM; under `CCOCn1c(Cc2cc(C)cc(C)c2)c(C(C)C)c(=O)[nH]c1=O`, 0.6 nM; under `CCc1c(Sc2cc(Cl)cc(Cl)c2)n(COCCO)c(=S)[nH]c1=O`, 43 nM.
`CC(C)c1c(Sc2ccccc2)n(COCc2ccccc2)c(=O)[nH]c1=O` registered an EC50 of 2.7 nM. This EC50 is about 16-fold lower than that of the compound before.
Under `CCc1c(Sc2ccccc2)n(COCc2ccccc2)c(=O)[nH]c1=O` stands 5.9 nM; under `CCc1c(Sc2ccccc2)n(CC(C)C)c(=S)[nH]c1=O`, 220 nM.
The figure for `Cc1c(Sc2cccc(C(F)(F)F)c2)n(COCCO)c(=O)[nH]c1=O` is 45000 nM; for `CCOCn1c(Sc2ccccc2)c(CC)c(=O)[nH]c1=O` it is 19 nM.
Under `CCc1c(Sc2cc(C)cc(C)c2)n(C/C=C/c2ccco2)c(=O)[nH]c1=O` stands 40 nM.
The compound `CC(C)c1c(Sc2ccccc2)n(COCc2ccccc2)c(=S)[nH]c1=O` returned an EC50 of 6.8 nM. Compared with the last compound, the EC50 is about 5.9-fold lower.
Under `CC(C)c1c(Cc2ccccc2)n(COCCO)c(=O)[nH]c1=O` stands 63 nM; under `CCc1c(Sc2ccccc2)n(COCCc2ccccc2)c(=O)[nH]c1=O`, 96 nM.
Compound `Cc1ccccc1Sc1c(C)c(=O)[nH]c(=O)n1COCCO` returned an EC50 of 71000 nM.
As to `CCc1cccc(Sc2c(C)c(=O)[nH]c(=O)n2COCCO)c1`, a half-maximal effect (EC50) was put at 2700 nM.
Compound `COc1ccccc1Sc1c(C)c(=O)[nH]c(=O)n1COCCO` displayed an EC50 of 19000 nM. Compared with the last compound, the EC50 is about 7-fold higher.
Under `COC(=O)c1cccc(Sc2c(C)c(=O)[nH]c(=O)n2COCCO)c1` stands 7900 nM; under `CCc1c(Sc2ccccc2)n(COCc2ccc(Cl)cc2)c(=S)[nH]c1=O`, 12 nM.
`CCc1c(Cc2ccccc2)n(COCCO)c(=O)[nH]c1=O` gave an EC50 of 350 nM.
The figure for `CCc1c(Sc2ccccc2)n(COCC2CCCCC2)c(=O)[nH]c1=O` is 450 nM; for `CCc1c(Sc2cc(C)cc(C)c2)n(COCCO)c(=S)[nH]c1=O` it is 7.8 nM; for `CCc1c(Sc2ccccc2)n(CC(C)C)c(=O)[nH]c1=O` it is 340 nM.
The figure for `CCc1c(Cc2cc(C)cc(C)c2)n(COCCO)c(=O)[nH]c1=O` is 13 nM; for `Cc1c(Cc2ccccc2)n(COCCO)c(=O)[nH]c1=O` it is 5700 nM.
The figure for `CCc1c(Sc2ccccc2)n(COC2CCCCC2)c(=S)[nH]c1=O` is 1600 nM.
As for `Cc1c(Sc2ccccc2[N+](=O)[O-])n(COCCO)c(=O)[nH]c1=O`, the response was half-maximal at 140000 nM (EC50).
Under `Cc1c(Oc2ccccc2)n(COCCO)c(=O)[nH]c1=O` stands 8900 nM; under `Cc1c(Sc2cccc(Br)c2)n(COCCO)c(=O)[nH]c1=O`, 5700 nM; under `CCc1c(Sc2ccccc2)n(COCCc2ccccc2)c(=S)[nH]c1=O`, 91 nM.
The compound `O=c1[nH]c(=O)n(COCCO)c(Sc2ccccc2)c1I` registered a concentration giving a half-maximal response (EC50) of 4300 nM.
Under `Cc1cc(C)cc(Sc2c(C(C)C)c(=O)[nH]c(=S)n2COCCO)c1` stands 5 nM; under `Cc1c(Sc2cccc(C(C)(C)C)c2)n(COCCO)c(=O)[nH]c1=O`, 12000 nM.
On to `CCCCn1c(Sc2ccccc2)c(C)c(=O)[nH]c1=O`, for which the EC50 worked out at 1200 nM.
The figure for `CCOCn1c(Sc2ccccc2)c(C2CC2)c(=O)[nH]c1=S` is 95 nM.
Under `Cc1c(Sc2cccc(C#N)c2)n(COCCO)c(=O)[nH]c1=O` stands 10000 nM; under `CCc1c(Sc2cc(Cl)cc(Cl)c2)n(COCCO)c(=O)[nH]c1=O`, 14 nM; under `Cc1c(Sc2cccc(I)c2)n(COCCO)c(=O)[nH]c1=O`, 10000 nM.
The figure for `CCc1c(Sc2ccccc2)n(COCc2ccc(C)cc2)c(=S)[nH]c1=O` is 78 nM; for `CCc1c(Sc2ccccc2)n(CCCc2ccccc2)c(=O)[nH]c1=O` it is 290 nM; for `C=Cc1c(Sc2ccccc2)n(COCCO)c(=O)[nH]c1=O` it is 4700 nM.
`COc1cccc(Sc2c(C)c(=O)[nH]c(=O)n2COCCO)c1` returned a concentration for a half-maximal effect (EC50) of 22000 nM.
Under `Cc1c(Sc2cccc(O)c2)n(COCCO)c(=O)[nH]c1=O` stands 82000 nM; under `Cc1c(Sc2ccccc2)n(C/C=C/c2cccnc2)c(=O)[nH]c1=O`, 100 nM.
For the compound `CCc1c(Sc2ccccc2)n(C/C=C/c2ccco2)c(=O)[nH]c1=O`, the 50% effective concentration (EC50) was found to be 170 nM. Compared with the last compound, the EC50 is about 1.7-fold higher.
Under `COCCn1c(Cc2ccccc2)c(C(C)C)c(=O)[nH]c1=O` stands 52 nM; under `CCc1c(Sc2ccccc2)n(COC2CCCCC2)c(=O)[nH]c1=O`, 4000 nM.
`Cc1c(Sc2cc(Cl)cc(Cl)c2)n(COCCO)c(=O)[nH]c1=O` registered a concentration giving a half-maximal response (EC50) of 1300 nM.
